From ChEMBL document CHEMBL1201862, “PubChem BioAssay data set” (2004)
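Compound exposure: 48 hours, 5 concentrations, 96-well plates. GI50 = concentration required for 50% inhibition of growth.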 Activity calls are given as the source filed them. No stated cut-off is given here; in the data, active = GI50 up to about 1.1 µM and inactive = higher.

Columns and labels:
Test in all cases: inhibition of tumour cell growth, NCI panel, 48 h
HL-60 = test system: HL-60
NCI-H226 = test system: NCI-H226
OVCAR-4 = test system: OVCAR-4
UO-31 = test system: UO-31
HCT-15 = test system: HCT-15
A498 = test system: A498
U-251 = test system: U-251
Malme-3M = test system: Malme-3M
TK-10 = test system: TK-10
SNB-19 = test system: SNB-19
SK-MEL-28 = test system: SK-MEL-28
HOP-62 = test system: HOP-62
A549 = test system: A549
RXF 393 = test system: RXF 393
M14 = test system: M14
COLO 205 = test system: COLO 205
LOX IMVI = test system: LOX IMVI
ACHN = test system: ACHN
SR = test system: SR
SK-MEL-2 = test system: SK-MEL-2

| Compound | GI50 (HL-60) | GI50 (NCI-H226) | GI50 (OVCAR-4) | GI50 (UO-31) | GI50 (HCT-15) [µM] | GI50 (A498) | GI50 (U-251) | GI50 (Malme-3M) | GI50 (TK-10) | GI50 (SNB-19) | GI50 (SK-MEL-28) | GI50 (HOP-62) | GI50 (A549) | GI50 (RXF 393) | GI50 (M14) | GI50 (COLO 205) | GI50 (LOX IMVI) | GI50 (ACHN) | GI50 (SR) | GI50 (SK-MEL-2) |
| --- | --- | --- | --- | --- | --- | --- | --- | --- | --- | --- | --- | --- | --- | --- | --- | --- | --- | --- | --- | --- |
| CCCCC[C@H](O)[C@H](C)C=C1SCCCS1 | > 100 µM (inactive) | > 100 µM (inactive) | > 100 µM (inactive) | > 100 µM (inactive) | > 100 | > 100 µM (inactive) | > 100 µM (inactive) | > 100 µM (inactive) | > 100 µM (inactive) | > 100 µM (inactive) | > 100 µM (inactive) | > 100 µM (inactive) | > 100 µM (inactive) | > 100 µM (inactive) | > 100 µM (inactive) | > 100 µM (inactive) | > 100 µM (inactive) | > 100 µM (inactive) | > 100 µM (inactive) | > 100 µM (inactive) |
| CC[C@H]1C=CCC[C@@]2(C[C@@H]3CC[C@H]4[C@H](C(=O)OCCCCCCCCCCCCCCCC(=O)N(CCCN)C[C@@H](O)CCN)[C@]5(CCC[C@@H](C)O5)NC(=[N+]34)N2)O1 | 0.345 µM (active) | 1.04 µM (active) | 0.863 µM (active) | 0.471 µM (active) | 0.723 | 1.45 µM (inactive) | 0.378 µM (active) | 0.196 µM (active) | 1.46 µM (inactive) | 1.21 µM (inactive) | 1.28 µM (inactive) | 1.26 µM (inactive) | 0.48 µM (active) | 1.6 µM (inactive) | 0.231 µM (active) | 0.342 µM (active) | 0.36 µM (active) | 0.513 µM (active) | 0.323 µM (active) | 0.53 µM (active) |
| CN(Cc1cnc2nc(N)nc(N)c2n1)c1ccc(C(=O)NCCCC(=O)O)cc1 | > 100 µM (inactive) | > 37.5 µM (inactive) | > 100 µM (inactive) | 17.5 µM (inactive) | 6.01 | > 100 µM (inactive) | 77.3 µM (inactive) | 95.9 µM (inactive) | > 69 µM (inactive) | > 63.1 µM (inactive) | > 100 µM (inactive) | 58.6 µM (inactive) | 5.83 µM (inactive) | > 100 µM (inactive) | 7.55 µM (inactive) | > 100 µM (inactive) | 4 µM (inactive) | 6.78 µM (inactive) | 4.99 µM (inactive) | > 100 µM (inactive) |
| COC(=O)C1=C(C)NC2(O)C=CC(=O)C3C(=O)N(c4ccccc4)C(=O)C132 (centres undefined) | 63.8 µM (inactive) | > 100 µM (inactive) | > 100 µM (inactive) | > 100 µM (inactive) | 63 | > 100 µM (inactive) | > 100 µM (inactive) | 37.8 µM (inactive) | > 100 µM (inactive) | > 100 µM (inactive) | 32.5 µM (inactive) | > 100 µM (inactive) | > 100 µM (inactive) | 83.4 µM (inactive) | 43.1 µM (inactive) | 36.5 µM (inactive) | 67.3 µM (inactive) | > 100 µM (inactive) | 76.4 µM (inactive) | > 100 µM (inactive) |
| Nc1ncc(N)c(NCC2(CO)CC(CCc3ccccc3)C2)n1 (centres undefined) | 0.12 µM (active) | 5.83 µM (inactive) | 4.02 µM (inactive) | 1.19 µM (inactive) | 13.9 | 13.5 µM (inactive) | 6.58 µM (inactive) | 11 µM (inactive) | 12.5 µM (inactive) | 11.1 µM (inactive) | 14.4 µM (inactive) | 14.7 µM (inactive) | 9.73 µM (inactive) | 12.5 µM (inactive) | 11.4 µM (inactive) | 3.71 µM (inactive) | 3.46 µM (inactive) | 12.1 µM (inactive) | 1.08 µM (active) | 6.95 µM (inactive) |
| Cc1cccc(C)c1NC(=O)C(=O)Nn1c(NN)nc2ccccc2c1=O | > 100 µM (inactive) | > 100 µM (inactive) | > 100 µM (inactive) | > 100 µM (inactive) | > 100 | > 100 µM (inactive) | > 100 µM (inactive) | > 100 µM (inactive) | > 100 µM (inactive) | > 100 µM (inactive) | > 100 µM (inactive) | > 100 µM (inactive) | > 100 µM (inactive) | > 100 µM (inactive) | > 100 µM (inactive) | > 100 µM (inactive) | > 100 µM (inactive) | > 100 µM (inactive) | > 100 µM (inactive) | > 100 µM (inactive) |
| COc1cccc2c1C(=O)c1c(O)c3c(c(O)c1C2=O)C[C@@](O)(C(=O)CO)CC3OC1CC(O)C(O)C(C)O1 (some centres undefined) | 0.0267 µM (active) | 0.0218 µM (active) | 1.01 µM (active) | 0.421 µM (active) | 0.397 | 0.171 µM (active) | 0.0679 µM (active) | 0.141 µM (active) | 0.792 µM (active) | 0.0822 µM (active) | 0.789 µM (active) | 0.0146 µM (active) | 0.104 µM (active) | 0.238 µM (active) | 0.361 µM (active) | – | 0.108 µM (active) | 0.0527 µM (active) | < 0.01 µM (active) | 0.608 µM (active) |
| CCCc1ccc(OCC(=O)N/N=C/c2c(-c3ccccc3)[nH]c3ccccc23)cc1 | 3.96 µM (inactive) | 17.3 µM (inactive) | 8.32 µM (inactive) | 24 µM (inactive) | 4.99 | 14.4 µM (inactive) | 6.19 µM (inactive) | 7.85 µM (inactive) | 17.1 µM (inactive) | 35.8 µM (inactive) | 20.1 µM (inactive) | 12.9 µM (inactive) | 8.17 µM (inactive) | 11.1 µM (inactive) | 11.5 µM (inactive) | 3.43 µM (inactive) | 9.38 µM (inactive) | 13.1 µM (inactive) | 3.85 µM (inactive) | 3.23 µM (inactive) |
| COc1ccc(-c2nnc3n(Cc4ccccc4)c4ccccc4n3c2=O)cc1 | > 100 µM (inactive) | 17.4 µM (inactive) | 6.01 µM (inactive) | 39.9 µM (inactive) | > 100 | 22.7 µM (inactive) | 19.9 µM (inactive) | 51.9 µM (inactive) | 21.9 µM (inactive) | 23.2 µM (inactive) | 36.4 µM (inactive) | 1.92 µM (inactive) | 45 µM (inactive) | 26.8 µM (inactive) | 77.6 µM (inactive) | > 100 µM (inactive) | 49.9 µM (inactive) | 15.2 µM (inactive) | > 100 µM (inactive) | 14.8 µM (inactive) |
| CC(=O)[C@H]1[C@H](O)C[C@@]2(C)[C@@H]3CCc4cc(O)c(OC5OC(CO)C(O)C(O)C5O)cc4C3(C)C(=O)C[C@]12C (some centres undefined) | > 100 µM (inactive) | > 100 µM (inactive) | > 100 µM (inactive) | > 100 µM (inactive) | > 100 | > 100 µM (inactive) | > 100 µM (inactive) | > 100 µM (inactive) | > 100 µM (inactive) | > 100 µM (inactive) | > 100 µM (inactive) | > 100 µM (inactive) | > 100 µM (inactive) | > 100 µM (inactive) | > 100 µM (inactive) | > 100 µM (inactive) | > 100 µM (inactive) | > 100 µM (inactive) | > 100 µM (inactive) | > 100 µM (inactive) |
